Experiments:
[1] = system: preterm infants less than 30 weeks gestational age requiring mechanical ventilation or positive pressure support; test: Multi-center, double blind, placebo-controlled randomized clinical trial of iNO for prevention of BPD; format: in vivo, human
Description: It has been discovered that certain biomarkers present in premature infants are predictive of the risk of developing BPD and/or the likelihood of a therapeutic response to iNO to prevent BPD. As used herein, the term “therapeutic response to iNO” means that iNO administration increases the rate of survival without bronchopulmonary dysplasia (BPD) at 36 weeks of post menstrual age compared to the rate of survival […] at 36 weeks of post menstrual age in an untreated premature infant population. As used herein, the term “premature infant”, “preterm infant” and the like means infants born at less than 30 weeks gestational age. The biomarkers identified are of three types: a) the concentration of metabolites of NO, such as nitrite and nitrate, in blood or plasma, b) the concentration of NO in exhaled air, and c) the presence or absence of a mutation in the eNOS gene that decreases endogenous NO production, or any combination thereof.
A multi-center, double blind, placebo-controlled randomized clinical trial was conducted to examine the efficacy of iNO in preterm infants less than 30 weeks gestational age and less than 1250 grams who required mechanical ventilation or positive pressure support on days 5 to 14 after birth. […]

[2] = LC/MS assay of total plasma nitrite and nitrate (NOx) in trial subjects; format: in vivo, human; settings: per subject, nitric oxide treatment arm
Description: Because of the challenge to measure free NO in systemic circulation, the PK assessment was done via plasma concentration data of NOx (nitrite and nitrate). In addition, methemoglobin (another metabolite of NO) was used as a secondary variable for PK evaluation. This evaluation was done to understand the relationship between pharmacokinetic behavior of iNO and clinical outcomes. The sampling protocol included pre-treatment time points (less than 2 hours before initiation of NO dosing), as well as a variety of time points during iNO therapy and after discontinuation of iNO therapy.
A liquid chromatographic/mass […] (LC/MS) assay method was developed and qualified for measurement NOx in human plasma. The quantitation of NOx was performed using the ^15N-stable isotope labeled nitrate as an internal standard. Nitrate reductase and NADH was added to the samples for enzymatic reduction of nitrate to nitrite in plasma. Upon completion of the reduction reaction, acetone was added to precipitate plasma proteins. The alkylating reagent, pentafluorobenzyl bromide (PFBBr), was subsequently added to the samples to convert nitrite to a chemically stable pentafluorobenzyl derivative. After completion of derivatization, plasma supernatant was injected into the LC/MS for analysis. Plasma concentrations of total nitrite and nitrate were measured and reported as NOx using this assay method. […]

[3] = system: mice with eNOS deficiency; settings: inhaled; cited from earlier work
[4] = system: premature infants between 7 and 21 days of age requiring ventilator support; settings: decreasing concentrations from 20 ppm, minimum of 24 days; cited from earlier work
[5] = in vivo; cited from earlier work

[N]=O [NITRIC OXIDE, nitric oxide]
Efficacy of iNO treatment ([1]; subjects having an average NOx concentration of about 20 or less): therapeutically effective | Efficacy of iNO treatment ([1]; subjects with NOx levels from 62.3 uM to 184 uM): not effective | Lab Test Result (plasma NOx, total nitrite and nitrate) [2]: <LLOQ | Alveolar and vascular growth [3]: stimulated alveolar and vascular growth | Pulmonary outcome [4]: improves the pulmonary outcome | Short term adverse effects [4]: no apparent short term adverse effects | Time before steady-state methemoglobin levels are attained [5]: ≥ 8 h
